Test [1] concerns the target T1, CDK20 (Homo sapiens, UniProt Q8IZL9).
T1 construct: purchased DiscoverX/Eurofins (KINOMEscan service); host or cells: HEK-293
The test can be described thus: CDK20 human CMGC kinase binding assay (KINOMEscan). As to conditions: for Kd: CDK20 kinase binding assay, mean ± SD of three independent experiments; for fold improvement in binding affinity compared to ISM042-2-001: ratio of Kd values. On the procedure: CDK20 human CMGC kinase binding assay
The assay was available as a product of the KINOMEscan service from DiscoverX/Eurofins. In brief, CDK20 proteins were produced in HEK-293 cells and subsequently tagged with DNA for qPCR detection. […] The liganded beads were blocked with excess biotin and washed with blocking buffer (SeaBlock (Pierce), 1% BSA, 0.05% Tween 20, and 1 mM DTT) to remove the unbound ligand and to reduce non-specific binding. […] Binding constants (Kds) were determined using an 11-point 3-fold compound dilution series with three DMSO control points. […] The compounds were then diluted directly into the assays such that the final concentration of DMSO was 0.9%. All reactions were performed in polypropylene 384-well plates. Each has a final volume of 0.02 ml. […] The kinase concentration in the eluates was measured by qPCR. Kds were calculated with a standard dose–response curve. The curves were fitted using a non-linear least squares fit with the Levenberg–Marquardt algorithm.

Test [2] concerns the target T2, CDK20/CycT1 (Homo sapiens, UniProt Q8IZL9).
T2 construct: purchased Reaction Biology Corp. (33PanQinase Activity Assay service)
As to the kind of experiment: CDK20 kinase activity assay (radiometric 33PanQinase). The format is biochemical. On the procedure:
CDK20 kinase activity assay
A radiometric protein kinase assay ([33]PanQinase® ActivityAssay, available as a service product from Reaction Biology Corp.) was used for measuring the kinase activity of the CDK20 kinases. This assay was performed in 96-well FlashPlates™ from PerkinElmer (Boston, MA, USA) in a 50 μl reaction volume. The reaction cocktail was pipetted in four steps in the following order: (a) 25 μl of assay buffer (standard buffer/[γ-^33P]-ATP); (b) 10 μl of ATP solution (in H2O); (c) 5 μl of test compound (in 10% DMSO); (d) 10 μl of enzyme/substrate mixture. The assay for CDK20 kinase contained 70 mM HEPES-NaOH pH 7.5, 3 mM MgCl2, 3 mM MnCl2, 3 μM Na-orthovanadate, 1.2 mM DTT, 50 μg ml^−1 PEG20000, 1.0 μM ATP [γ-[33]P],-ATP (approx. 7 × 10^5 cpm per well), and 200 ng/50 μl kinase protein, and the substrate was 4.0 μg/50 μl. The compounds were dissolved to 1 × 10^−3 M in volumes of 100% DMSO. The 1 × 10^−3 M stock solutions were subjected to a serial, semi-logarithmic dilution using 100% DMSO as a solvent. The final volume of the assay was 50 μL All compounds were tested at 10 final assay concentrations in the range from 1 × 10^−5 M to 3 × 10^−10 M. The final DMSO concentration in the reaction cocktails was 1% in all cases. The “low control” was defined as the value that reflects unspecific binding of radioactivity to the plate in the absence of a protein kinase but in the presence of the substrate. The “high control” was defined as the full activity in the absence of any inhibitor. The difference between high and low controls was taken as 100% activity. As part of the data evaluation the low control value from a particular plate was subtracted from the high control value as well as from all 80 “compound values” of the corresponding plate.
The residual activities for each concentration and the compound’s IC50 values were calculated using Quattro Workflow V3.1.1 (Quattro Research GmbH, Munich, Germany; http://www.quattro-research.com/). […] The fitting method used was a least-squares fit.

The target in test [3] is T2, CDK20/CycT1. Further details: method as in doi:10.1158/1538-7445.AM2016-2821.
For test [4], the target named is CDK20. As to conditions: cited from earlier work.
A further test concerns Huh7. As to the kind of experiment: Cell viability assay (Celltiter Glo), Huh7. Particulars: Homo sapiens, Huh-7, 72 h; HCC cell line with CDK20 overexpression; 3 days incubation; read-out: anti-proliferation IC50 in Huh7. The format is cell-based. On the procedure: (§1) The Huh7 and HEK293 cells were maintained in DMEM with 10% FBS and 1% streptomycin and penicillin in 5% CO2. When the confluence of these two cell lines reached 80–90%, cells were harvested and resuspended, and the proper cells were added into a 384-well plate as below: Huh-7: 650 cells per well; HEK-293 : 300 cells per well. The final testing concentrations of the compounds were: 10 000, 3333, 1111, 370, 123, 41.2, 13.7, 4.57, 1.52, and 0.51 nM. The cells were incubated in a 37 °C, 5% CO2 incubator for 3 days, and then a reagent was added (Celltiter Glo assay kit) to the cells for testing and a Multiplate reader was used to record the chemiluminescence value. And GraphPad Prism 9 software was used to calculate IC50 and plot the effect–dose curve of compounds. The assays were conducted at Pharmaron Inc. in a fee-for-service mode.
Background: In ATP-based viability assays light output follows the ATP content of the culture.

For another test, the system named is HEK293. As to the kind of experiment: Cell viability assay (Celltiter Glo), counter screen HEK293. Particulars: Homo sapiens, HEK293, 72 h; counter screen cell line; 3 days incubation; read-out: anti-proliferation IC50 in HEK293. It is filed as cell-based. On the procedure:
as §1

The mark [5] stands for this setting: read-out: CDK20/CycT1 IC50; poster of Mueller et al.; cited from earlier work.
The mark [6] stands for this setting: CDK20 kinase activity assay, 1.0 μM ATP, values with SD from three independent experiments, read-out: CDK20/CycT1 IC50.

As usually defined, the Kd is the equilibrium constant for the complex coming apart.

Like-named read-outs stand apart in the source and are kept apart here.

T1 sequence (Q8IZL9 whole entry): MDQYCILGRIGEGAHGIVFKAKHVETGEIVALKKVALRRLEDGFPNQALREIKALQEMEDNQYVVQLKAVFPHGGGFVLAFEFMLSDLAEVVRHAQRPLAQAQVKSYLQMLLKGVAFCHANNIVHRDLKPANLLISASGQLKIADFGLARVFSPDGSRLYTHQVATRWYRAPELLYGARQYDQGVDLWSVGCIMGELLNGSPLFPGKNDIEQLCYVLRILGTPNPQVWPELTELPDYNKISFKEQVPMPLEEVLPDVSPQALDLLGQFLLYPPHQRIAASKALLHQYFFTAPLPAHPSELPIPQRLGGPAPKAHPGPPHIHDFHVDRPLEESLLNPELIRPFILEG
T2 sequence (Q8IZL9 whole entry): as above
T2 sequence (O60563 whole entry partner): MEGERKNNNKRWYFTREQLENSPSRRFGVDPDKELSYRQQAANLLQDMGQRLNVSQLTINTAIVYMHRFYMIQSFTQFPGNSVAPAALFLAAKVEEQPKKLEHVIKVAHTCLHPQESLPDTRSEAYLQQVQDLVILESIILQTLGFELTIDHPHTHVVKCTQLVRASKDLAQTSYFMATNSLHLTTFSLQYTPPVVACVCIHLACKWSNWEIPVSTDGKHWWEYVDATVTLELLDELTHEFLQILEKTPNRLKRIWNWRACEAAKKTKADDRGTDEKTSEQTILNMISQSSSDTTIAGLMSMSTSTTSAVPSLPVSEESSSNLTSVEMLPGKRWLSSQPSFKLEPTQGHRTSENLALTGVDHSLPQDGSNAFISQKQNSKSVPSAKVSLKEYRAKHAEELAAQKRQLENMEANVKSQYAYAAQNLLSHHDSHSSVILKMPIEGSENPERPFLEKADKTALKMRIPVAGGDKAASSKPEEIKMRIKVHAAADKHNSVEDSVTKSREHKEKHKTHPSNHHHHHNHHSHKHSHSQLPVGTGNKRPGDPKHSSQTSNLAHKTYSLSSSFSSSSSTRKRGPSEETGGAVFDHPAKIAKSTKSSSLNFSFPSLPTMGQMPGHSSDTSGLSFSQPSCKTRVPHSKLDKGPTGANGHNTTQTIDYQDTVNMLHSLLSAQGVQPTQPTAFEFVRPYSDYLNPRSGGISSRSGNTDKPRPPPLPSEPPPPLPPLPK

Consider `CN(C)CCNC(=O)c1cc(Nc2ncc3ccccc3n2)c[nH]1` [ISM042-2-052], for which binding at CDK20 [1] was put at a Kd of 18.7 ± 6.34 µM. In addition, the IC50 at CDK20/CycT1 [2] was greater than 6 µM.

`CCc1cnn2c(NCc3ccc[n+]([O-])c3)cc(N3CCCC[C@H]3CCO)nc12` [Dinaciclib]: the IC50 at CDK20/CycT1 [3] (setting [5]) was 2.86 µM.

The compound `c1cc(-c2nc3cnncc3s2)nc(N[C@H]2CCNC2)n1` [ISM042-2-025] yielded a Kd on CDK20 [1] greater than 30 µM.

On CDK20 [1], `CN1CCC(NC(=O)c2cc(Nc3ncc4ccccc4n3)c[nH]2)CC1` [ISM042-2-055] returned a Kd of 14.3 ± 1.7 µM. Besides, the IC50 on CDK20/CycT1 [2] (setting [6]) stood at 4.08 ± 0.575 µM.

For the compound `c1cc(-n2cc(C3COC3)nn2)cc(NC2CC2)n1` [ISM042-2-009], the Kd at CDK20 [1] is greater than 30 µM.

On to `O=C(Nc1ccc2cc(C(=O)Nc3nccs3)ccc2c1)c1ccc(Cl)c(Cl)c1` [AAPK-25], for which the Kd on CDK20 [4] was 8.02 µM.

As for `CNC(=O)c1cc(Nc2ncc3ccc(=O)n(C4CCCC4)c3n2)c[nH]1` [ISM042-2-049], on CDK20 [1], binding was put at a Kd of 0.36 ± 0.0141 µM and the “fold improvement in binding affinity compared to ISM042-2-001” value was found to be 24 fold. Further, the IC50 at CDK20/CycT1 [2] (setting [6]) stood at 0.468 ± 0.006 µM.

Take `CCc1ccc(-c2cccc3nc(NC4CCCC4)[nH]c23)[nH]c1=O` [ISM042-2-015]: the dissociation constant (Kd) on CDK20 [1] is greater than 30 µM.

`CN1CCN(CCNC(=O)c2cc(Nc3ncc4ccccc4n3)c[nH]2)CC1` [ISM042-2-053]: the Kd on CDK20 [1] is 17.7 ± 4.03 µM. Further, the IC50 on CDK20/CycT1 [2] (setting [6]) was determined as 7.8 ± 0.125 µM.

As for `CC[C@H](CO)Nc1nc(NCc2ccccc2)c2ncn(C(C)C)c2n1` [Roscovitine], the IC50 at CDK20/CycT1 [3] (setting [5]) was 8.68 µM.

Consider `CNC(=O)c1cccc(Nc2ncc3ccccc3n2)c1` [ISM042-2-050], for which the Kd on CDK20 [1] is 5.33 ± 1.19 µM. Also, the IC50 at CDK20/CycT1 [2] (setting [6]) was found to be 7.1 ± 0.478 µM.

On CDK20 [1], `CNC(=O)c1cc(Nc2ncc3ccc(-c4cn[nH]c4)cc3n2)c[nH]1` [ISM042-2-048] showed a dissociation constant Kd of 0.567 ± 0.256 µM. For the same compound, the “fold improvement in binding affinity compared to ISM042-2-001” value at CDK20 [1] is on record as 15 fold. In addition, the IC50 with Huh7 came out at 0.209 ± 0.0033 µM; with HEK293 it was 1.71 ± 0.67 µM; at CDK20/CycT1 [2] (setting [6]), 0.0334 ± 0.0226 µM.

With `CC(C)(CO)CNCc1ccc(Nc2ncc(SCc3ncc(C(C)(C)C)o3)s2)nc1` [BMS-357075], the Kd at CDK20 [4] (disclosed by Eurofins) was 0.056 µM.

At CDK20 [1], `CNC(=O)c1cc(Nc2ncc3ccccc3n2)c[nH]1` [ISM042-2-001] registered a dissociation constant Kd of 9.2 ± 0.5 µM. Also, the IC50 at CDK20/CycT1 [2] (setting [6]) is greater than 6 µM.

With `NC(=O)c1cc(N2CCC(F)(F)CC2)nc(-c2cc[nH]n2)n1` [ISM042-2-007], at CDK20 [1], the Kd was greater than 30 µM.

With `Cn1cc(Oc2ccnc(NC3(C)CC3)c2)cn1` [ISM042-2-004], at CDK20 [1], the dissociation constant Kd was greater than 30 µM.

Consider `Cc1ccnc(-n2cncc2N2CC3(COC3)C2)n1` [ISM042-2-019], for which the Kd on CDK20 [1] was greater than 30 µM.

Regarding `CC(=O)c1c(C)c2cnc(Nc3ccc(N4CCNCC4)cn3)nc2n(C2CCCC2)c1=O` [Palbociclib], the IC50 at CDK20/CycT1 [3] (poster of Mueller et al.; read-out: CDK20/CycT1 IC50; cited from earlier work) was 1.26 µM.

(Values after article PMC9906638, “AlphaFold accelerates artificial intelligence powered drug discovery: efficient discovery of a novel CDK20 small molecule inhibitor” (Chemical Science, 2023).)
